Paper PMC8300687, “A Fine-Tuned Lipophilicity/Hydrophilicity Ratio Governs Antibacterial Potency and Selectivity of Bifurcated Halogen Bond-Forming NBTIs” (Antibiotics, 2021)
≈ marks a conversion by molar mass, not a printed value. Read-outs that look alike come from different tables or passages of the source.

Columns and labels:
S. aureus DNA gyrase = molecular target: T1, S. aureus DNA gyrase (Staphylococcus aureus, UniProt P20831); assay: biochemical; assay type: biochemical; settings: for LE DNA Gyrase S. aureus: LE = (1.37/HA) × pIC50; for IC50: fluorescence plate supercoiling assay, mean of two to four measurements
T1 construct: purchased Inspiralis (Norwich, UK)
T1 sequence (P20831 whole entry): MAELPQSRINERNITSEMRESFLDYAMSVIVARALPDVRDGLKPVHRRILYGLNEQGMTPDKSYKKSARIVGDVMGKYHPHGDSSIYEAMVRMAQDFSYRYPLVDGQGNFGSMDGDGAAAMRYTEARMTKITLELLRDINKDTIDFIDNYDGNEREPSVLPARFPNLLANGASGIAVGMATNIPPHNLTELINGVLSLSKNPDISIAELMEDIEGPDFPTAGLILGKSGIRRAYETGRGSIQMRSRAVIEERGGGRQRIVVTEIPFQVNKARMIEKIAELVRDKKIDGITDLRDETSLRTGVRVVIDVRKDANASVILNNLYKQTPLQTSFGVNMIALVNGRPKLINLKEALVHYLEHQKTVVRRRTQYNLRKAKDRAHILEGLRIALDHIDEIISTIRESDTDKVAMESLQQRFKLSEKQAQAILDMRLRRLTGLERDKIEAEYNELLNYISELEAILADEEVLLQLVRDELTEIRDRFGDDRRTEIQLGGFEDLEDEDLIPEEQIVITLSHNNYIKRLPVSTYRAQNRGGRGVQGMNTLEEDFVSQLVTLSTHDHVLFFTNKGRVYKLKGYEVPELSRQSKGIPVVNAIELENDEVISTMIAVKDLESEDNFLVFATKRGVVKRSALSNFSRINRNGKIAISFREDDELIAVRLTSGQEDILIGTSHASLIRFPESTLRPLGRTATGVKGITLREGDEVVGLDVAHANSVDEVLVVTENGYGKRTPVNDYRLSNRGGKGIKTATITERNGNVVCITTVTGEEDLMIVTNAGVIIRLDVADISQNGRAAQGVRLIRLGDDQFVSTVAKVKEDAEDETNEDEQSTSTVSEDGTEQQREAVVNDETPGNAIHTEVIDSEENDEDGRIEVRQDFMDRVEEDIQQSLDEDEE
T1 sequence (P0A0K8 whole entry partner): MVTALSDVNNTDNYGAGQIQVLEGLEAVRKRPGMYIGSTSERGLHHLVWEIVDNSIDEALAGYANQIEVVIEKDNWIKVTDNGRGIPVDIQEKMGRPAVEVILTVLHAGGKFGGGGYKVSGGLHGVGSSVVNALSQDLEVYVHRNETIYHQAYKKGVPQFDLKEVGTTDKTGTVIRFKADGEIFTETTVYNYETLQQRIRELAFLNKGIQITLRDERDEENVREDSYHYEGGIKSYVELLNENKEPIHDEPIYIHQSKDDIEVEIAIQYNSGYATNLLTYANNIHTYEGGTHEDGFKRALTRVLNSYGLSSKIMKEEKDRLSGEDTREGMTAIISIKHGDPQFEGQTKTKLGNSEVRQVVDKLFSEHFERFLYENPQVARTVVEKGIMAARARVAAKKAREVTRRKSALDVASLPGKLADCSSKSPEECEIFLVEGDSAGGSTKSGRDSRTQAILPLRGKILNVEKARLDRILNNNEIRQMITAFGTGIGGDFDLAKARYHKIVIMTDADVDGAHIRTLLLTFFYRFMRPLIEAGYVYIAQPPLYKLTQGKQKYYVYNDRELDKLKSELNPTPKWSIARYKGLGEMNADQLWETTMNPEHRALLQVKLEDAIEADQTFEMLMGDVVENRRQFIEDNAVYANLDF
Method: A Gyrase Supercoiling High Throughput Plate assay kit, purchased from Inspiralis (Norwich. UK) was used to determine IC50 values of compounds on S. aureus and E. coli. […] Biotinylated oligonucleotide in wash buffer was immobilized onto the wells, and the excess oligonucleotide was washed off with wash buffer and ultrapure water. […] The reactions were stopped by adding the TF buffer (50 mM NaOAc (pH 4.7), 50 mM NaCl, and 50 mM MgCl2) to allow the triplex formation (biotin-oligonucleotide-plasmid) for additional 30 min. Afterward, the unbound plasmid was washed off using TF buffer, and the solution of Promega Diamond dye in T10 buffer (10 mM Tris-HCl (pH 8.0), 1 mM EDTA) was added. […] IC50 value represents the mean of two to four independent measurements.

S. aureus (ATCC 29213) = assay: MIC broth microdilution, S. aureus ATCC 29213; assay type: cell-based; settings: Staphylococcus aureus, ATCC29213
Method: (§1) Antimicrobial testing was carried out by the broth microdilution method in 96-well plate format following the Clinical and Laboratory Standards Institute (CLSI) guidelines and European Committee on Antimicrobial Susceptibility Testing (EUCAST) recommendations. Bacterial suspension of specific bacterial strain equivalent to 0.5 McFarland turbidity standard was diluted with cation-adjusted Mueller Hinton broth with TES (Thermo Fisher Diagnostic, Landsmeer, The Netherlands), to obtain a final inoculum of 10^5 CFU/mL. Compounds dissolved in DMSO and inoculum were mixed together and incubated for 18–20 h at 35 °C. Suspensions of Mycobacterium sp. were prepared into a tube of Middelbrook 7H9 broth supplemented with 5% OADC (Thermo Scientific, Trek Diagnostic Systems, West Sussex, UK) and incubated for at least 10 days. After incubation the minimal inhibitory concentration (MIC) values were determined by visual inspection as the lowest dilution of compounds showing no turbidity. Tetracycline was used as a positive control on every assay plate.

MRSA = assay: MIC broth microdilution, MRSA; assay type: cell-based, methicillin-resistant S. aureus; settings: Staphylococcus aureus, read-out: MIC MRSA
Method: as §1

MRSA (QA-11.7) = assay: MIC broth microdilution, MRSA QA-11.7; assay type: cell-based, methicillin-resistant S. aureus; settings: Staphylococcus aureus, 20 h, read-out: MIC MRSA (QA-11.7)
Method: as §1

MRSA (QA-11.4) = assay: MIC broth microdilution, MRSA QA-11.4; assay type: cell-based, methicillin-resistant S. aureus; settings: Staphylococcus aureus, 20 h, resistant to cefoxitin, read-out: MIC MRSA (QA-11.4)
Method: as §1

[1] = test system: E. faecalis DRK 057 (ATCC 29212); assay: MIC broth microdilution, E. faecalis; assay type: cell-based; settings: Enterococcus faecalis, ATCC29212; read-out: MIC E. faecalis DRK 057 (ATCC 29212)
Method: as §1

[2] = test system: S. agalactiae RDK 047 (QA-990/02); assay: MIC broth microdilution, S. agalactiae; assay type: cell-based; settings: Streptococcus agalactiae; read-out: MIC S. agalactiae RDK 047 (QA-990/02)
Method: as §1

E. coli (QA-11.7) = assay: MIC broth microdilution, E. coli QA-11.7; assay type: cell-based; settings: Escherichia coli, 20 h; multi-resistant isolate (ampicillin, azithromycin, cefotaxime, ertapenem, imipenem and others); read-out: MIC E. coli (QA-11.7)
Method: as §1

E. coli N43 (CGSC# 5583) = assay: MIC broth microdilution, E. coli N43; assay type: cell-based; settings: Escherichia coli
How it was run: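 For the mycobacterial strain, suspensions in Middelbrook 7H9 broth with 5% OADC were incubated no less than 10 days. Other strains: cation-adjusted Mueller Hinton/TES broth, 10^5 CFU/mL final, 35 °C for 18–20 h. Endpoint: no turbidity by visual inspection; tetracycline served as plate control.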

[3] = test system: A. baumannii 8C6 (GES-14); assay: MIC broth microdilution, A. baumannii; assay type: cell-based; settings: Acinetobacter baumannii; read-out: MIC A. baumannii 8C6 (GES-14)
Method: as §1

M. smegmatis = assay: MIC, M. smegmatis; assay type: cell-based, Mycobacterium smegmatis; settings: Mycolicibacterium smegmatis; read-out: MIC M. smegmatis
Method: as §1

M. avium = assay: MIC, M. avium; assay type: cell-based; settings: Mycobacterium avium; read-out: MIC M. avium
Method: as §1

HUVEC = assay: Metabolic activity assessment (cytotoxicity), HUVEC; assay type: cell-based; settings: Homo sapiens, metabolic activity after 72 h treatment
Method: Cells of the HepG2 line (ATCC® HB-8065™) and HUVEC (ATCC® CRL-1730™) were cultured in Dulbecco’s Modified Eagle Medium (DMEM; Sigma-Aldrich, St. Louis, MO, USA) supplemented with 10% heat-deactivated FBS (Gibco, Grand Island, NE, USA), 2 mM L-glutamine, 100 U/mL penicillin, 100 μg/mL streptomycin (all from Sigma-Aldrich, St. Louis, MO, USA) in a humidified chamber at 37 °C and 5% CO2. The experiments were carried out on passages 7–9 for both cell lines. The tested compounds were dissolved in DMSO and further diluted in culture medium to a desired final concentration. Cells were seeded into 96-well plates at 8 × 10^4 cells/mL (100 μL/well) and incubated for 24 h to attach onto the wells. Cells were treated with 1 μM and 50 μM of each compound of interest or corresponding vehicle as control. […] The metabolic activity was assessed after 72 h treatment using the CellTiter 96 Aqueous One Solution Cell Proliferation Assay (Promega, Madison, WI, USA), in accordance with the manufacturer’s instructions. The absorbance was measured at 492 nm on an automated microplate reader BioTek Synergy HT (BioTek Instruments, Inc., Winooski, VT, USA). Data are presented as the percentage of metabolic activity of control cells stimulated with vehicle or as IC50 value (mean ± SD) from two independent experiments, each conducted in duplicate or triplicate. IC50 values were calculated by a non-linear regression model using Graph Pad Prism 7 software.

in vitro = settings: PAMPA
How it was run: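 Compounds measured by HPLC (isocratic, compound-specific methods) after 4-h incubation at 37 °C across a three-layer artificial membrane into pH 7.4 PBS acceptor. Permeability derived from donor and acceptor peak areas, using diluted starting donor solution as external standard.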

[4] = S. aureus ATCC 29213, read-out: S. aureus MIC (converted)
[5] = read-out: MIC S. aureus (ATCC 29213)
[6] = read-out: E. coli N43 MIC in molar
[7] = read-out: MIC E. coli N43 (CGSC# 5583)

| SMILES | LE DNA Gyrase S. aureus (S. aureus DNA gyrase) | IC50 (S. aureus DNA gyrase) | MIC (S. aureus (ATCC 29213); [4]) | MIC (S. aureus (ATCC 29213); [5]) | MIC (MRSA) | MIC (MRSA (QA-11.7)) | MIC (MRSA (QA-11.4)) | MIC [1] | MIC [2] | MIC (E. coli (QA-11.7)) | MIC (E. coli N43 (CGSC# 5583); [6]) | MIC (E. coli N43 (CGSC# 5583); [7]) | MIC [3] | MIC (M. smegmatis) | MIC (M. avium) | IC50 (HUVEC) | Papp at 4 h (in vitro) | Papp at 4 h (in vitro; pH 7.4) | IC50 (HUVEC; 72 h) | improvement in S. aureus gyrase IC50 compared to its predecessor (S. aureus DNA gyrase; vs methoxy-quinoline cyclohexyl-amide predecessor) |
| --- | --- | --- | --- | --- | --- | --- | --- | --- | --- | --- | --- | --- | --- | --- | --- | --- | --- | --- | --- | --- |
| COc1ccc2nccc(CCN3CCC(NCc4cnn(-c5ccc(F)cc5)c4)CC3)c2n1 [Compound 4, N-((1-(4-Fluorophenyl)-1H-pyrazol-4-yl)methyl)-1-(2-(6-methoxy-1,5-naphthyridin-4-yl)ethyl)piperidin-4-amine] | 0.25 | 0.51 ± 0.25 µM | 4.34 µM | 2 mg/L | 2 mg/L (≈ 4.34 µM) | 2 mg/L (≈ 4.34 µM) | 8 mg/L (≈ 17.4 µM) | 8 mg/L (≈ 17.4 µM) | 2 mg/L (≈ 4.34 µM) | 16 mg/L (≈ 34.7 µM) | 4.34 µM | 2 mg/L | 32 mg/L (≈ 69.5 µM) | ≤ 1 mg/L | 128 mg/L (≈ 278 µM) | 9.64 ± 0.03 µM | > 27 nm/s | 142 nm/s | – | – |
| COc1ccc2nccc(CCN3CCC(NCc4ccc(OC(F)F)c(OC)c4)CC3)c2n1 [Compound 19, N-(4-(Difluoromethoxy)-3-methoxybenzyl)-1-(2-(6-methoxy-1,5-naphthyridin-4-yl)ethyl)piperidin-4-amine] | 0.26 | 0.35 ± 0.03 µM | 2.12 µM | 1 mg/L | 2 mg/L (≈ 4.23 µM) | 2 mg/L (≈ 4.23 µM) | 2 mg/L (≈ 4.23 µM) | 16 mg/L (≈ 33.9 µM) | < 1 mg/L | 2 mg/L (≈ 4.23 µM) | 2.12 µM | 1 mg/L | 8 mg/L (≈ 16.9 µM) | 4 mg/L (≈ 8.46 µM) | 128 mg/L (≈ 271 µM) | – | > 27 nm/s | 90 nm/s | 19.8 ± 2.58 µM | – |
| COc1ccc2nccc(CCN3CCC(NCc4cnn(-c5ccccc5)c4)CC3)c2n1 [Compound 5, 1-(2-(6-Methoxy-1,5-naphthyridin-4-yl)ethyl)-N-((1-phenyl-1H-pyrazol-4-yl)methyl)piperidin-4-amine] | 0.27 | 0.33 ± 0.08 µM | 0.57 µM | 0.25 mg/L | 0.5 mg/L (≈ 1.13 µM) | 0.5 mg/L (≈ 1.13 µM) | 1 mg/L (≈ 2.26 µM) | 1 mg/L (≈ 2.26 µM) | 1 mg/L (≈ 2.26 µM) | 2 mg/L (≈ 4.52 µM) | 2.26 µM | 1 mg/L | 4 mg/L (≈ 9.04 µM) | 0.25 mg/L (≈ 0.565 µM) | 64 mg/L (≈ 145 µM) | 10.7 ± 0.01 µM | > 27 nm/s | 255 nm/s | – | 2.5 fold |
| COc1ccc(CNC2CCN(CCc3ccnc4ccc(OC)nc34)CC2)cn1 [Compound 22, 1-(2-(6-Methoxy-1,5-naphthyridin-4-yl)ethyl)-N-((6-methoxypyridin-3-yl)methyl)piperidin-4-amine] | 0.30 | 0.34 ± 0.05 µM | 1.19 µM | 0.5 mg/L | 1 mg/L (≈ 2.45 µM) | 1 mg/L (≈ 2.45 µM) | 2 mg/L (≈ 4.91 µM) | 2 mg/L (≈ 4.91 µM) | 1 mg/L (≈ 2.45 µM) | 2 mg/L (≈ 4.91 µM) | 2.38 µM | 1 mg/L | 4 mg/L (≈ 9.82 µM) | 16 mg/L (≈ 39.3 µM) | > 128 mg/L | > 50 µM | > 27 nm/s | 82 nm/s | – | – |
